{"source": "patent US20230143486A1", "about": "“METHODS OF GENERATING MIDBRAIN DOPAMINE NEURONS, MIDBRAIN NEURONS AND USES THEREOF” (MEMORIAL SLOAN-KETTERING CANCER CENTER, priority 2020, published 2023)", "molecules": {"B1": {"name": "FGF18: FGF activator, member of the FGF8 subfamily (protein, UniProt O76093 28-207, looked up)", "Fibroblast growth factor 18": "EENVDFRIHVENQTRARDDVSRKQLRLYQLYSRTSGKHIQVLGRRISARGEDGDKYAQLLVETDTFGSQVRIKGKETEFYLCMNRKGKLVGKPDGTSKECVFIEKVLENNYTALMSAKYSGWYVGFTKKGRPRKGPKTRENQQDVHFMKRYPKGQPELQKPFKYTTVTKRSRRIRPTHPA"}}, "key": {"rodent GSK3β homologs": {"system": "rodent GSK3β homologs", "settings": "cited from earlier work"}, "[1]": {"system": "differentiated mDA cells from hPSC and hiPSC", "assay": "mRNA expression of marker genes in differentiated mDA cells (Wnt-boost protocol with or without FGF18 and/or IWP2)", "assay_type": "cell-based, human", "procedure": "hPSC and hiPSC were used for the differentiation methods. First, the effect of Wnt signaling on ALDH1A1 induction in mDA cells differentiated with different protocols was evaluated. The mRNA expression levels of FOXA2, LMX1A, EN1, WNT1, OTX2, ALDH1A1 and PAX6 were evaluated in day 16-differentiated mDA cells produced using Wnt-boost, Wnt-boost+IWP2 (day 10-day 16), and Wnt-boost+IWP2 (day 12-day 16) protocols, with or without FGF18 (day 12-16) (FIG. 1).\nSMA mRNA expression level was not detectable. The Wnt-boost protocol in combination with FGF18 and IWP2 generated optimal A/P and DN patterned precursors, where more than 90% cells are FOXA2/EN1 double positive (FIG. 2A). […] Furthermore, The mRNA expression levels of FOXA2, LMX1A, OTX2, EN1, ALDH1A1, BARHL2, BARHL1, PAX6, ALDH2, and WNT1 were evaluated at day 16 in differentiated mDA cells produced using Wnt-boost, Wnt-boost+IWP2 (day 12-day 16) protocols, with or without FGF18 (FIG. 3). The effect of IWP2 on the expression of marker genes in the differentiated cells was determined. […] The present disclosure observed the presence of very high quadrupole positive cells at day 16 (FOXA2/LMX1A, OTX2/EN1). […] Additionally, the expression of ALDH1A1, WNT1, PITX3, DAT, DDC, VMTA2 were increased by the addition of IWP2 and FGF18, whereas IWP2 lowered the expression of Ki67, SMA and SIX1. Immuno-staining images of day 60-differentiated cells were collected showing the expression of FOXA2, TH, and MAP2 (FIG. 14A), and EN1 and TH (FIG. 14B).\nThe mRNA expression levels of FOXA2, LMX1A, OTX2, EN1, ALDH1A1, WNT1, BARHL1, PAX6, OTX2, and NKX2-2 were evaluated at day 16 in differentiated mDA cells produced using Wnt-boost, Wnt-boost+IWP2 (day 12-day 16) protocols, with or without FGF18. The present disclosure discovered that IWP2 exposure led to increased ALDH1A1 as well as high endogenous WNT1 expression at day 16 both in Wnt Boost and Wnt Boost+FGF18 conditions. Moreover, IWP2 exposure lowered PAX6 and NKX2-2 expression (FIG. 12).\nThe mRNA expression of marker genes in sorted day 28-differentiated CD49^weak/CD184^weak cells and CD49^weak/CD184^strong cells were measured (FIGS. 21 and 22)."}, "hPSC-derived mDA neurons": {"system": "hPSC-derived mDA neurons", "assay": "Optimizing WNT inhibition in mDA neuron differentiation (qRT-PCR and ICC)", "assay_type": "cell-based, human", "text": "This example is designed to optimize the temporal window and concentration of the WNT treatment, and to test whether reactivation of non-canonical signaling is required for optimal levels of mDA neuron differentiation or maturation. […] IWP2 inhibits both non-canonical signaling and canonical signaling. The expressions of PITX3, DAT, and VMAT2 are quantified by qRT-PCR and immunocytochemistry (ICC). […] Optimized conditions are validated across hPSC lines (3 hESC and 3 iPSC lines; >3 independent differentiations each) (Zimmer, et al. Proceedings of the National Academy of Sciences of the United States of America 115, […]-[…] (2018)) including male and female lines."}, "ALK2, ALK3, and ALK6": {"system": "ALK2, ALK3, and ALK6", "settings": "cited from earlier work"}, "[2]": {"settings": "day 16, both Wnt Boost and Wnt Boost+FGF18 conditions, IWP2 day 12-day 16"}}}
{"molecule": "Cc1c[nH]c(-c2cnc(NCCNc3ccc(C#N)cn3)nc2-c2ccc(Cl)cc2Cl)n1", "note": "[CHIR99021, 6-(2-(4-(2,4-dichlorophenyl)-5-(4-methyl-1H-imidazol-2-yl)pyrimidin-2-ylamino)ethylamino)nicotinonitrile]", "values": [{"measurement": "IC50 values against rodent GSK3β homologs", "setting": "rodent GSK3β homologs", "value": "nanomolar"}]}
{"molecule": "Cc1ccc2nc(NC(=O)CSc3nc4c(c(=O)n3-c3ccccc3)SCC4)sc2c1", "note": "[IWP2]", "values": [{"measurement": "expression of Ki67, SMA and SIX1", "setting": "[1]; Wnt-boost protocol, IWP2 day 12 to day 16", "value": "lowered"}, {"measurement": "expression of ALDH1A1", "setting": "[1]; continued exposure until day 30, day 30-differentiated cells", "value": "further induced"}, {"measurement": "PAX6 and NKX2-2 expression", "setting": "[1]; day 16, IWP2 day 12-day 16", "value": "lowered"}, {"measurement": "ALDH1A1 expression", "setting": "[1]; [2]", "value": "increased"}, {"measurement": "endogenous WNT1 expression", "setting": "[1]; [2]", "value": "high"}, {"measurement": "expression of ALDH1A1", "setting": "[1]; exposure from day 12 to day 25, sorted day 28-differentiated cells, confirmed by immunofluorescent staining", "value": "further induced"}, {"measurement": "effect on the expression of EN1 or the emergence of contaminating markers (SIX1 and SMA)", "setting": "hPSC-derived mDA neurons", "value": "does not negatively affect"}]}
{"molecule": "c1ccc2c(-c3cnn4cc(-c5ccc(N6CCNCC6)cc5)cnc34)ccnc2c1", "note": "[LDN193189, 4-(6-(4-(piperazin-1-yl)phenyl)pyrazolo[1,5-a]pyrimidin-3-yl)quinoline]", "values": [{"measurement": "inhibitor of ALK2, ALK3, and ALK6", "setting": "ALK2, ALK3, and ALK6", "value": "highly potent"}]}
{"molecule": "Oc1nc(-c2ccc(C(F)(F)F)cc2)nc2c1CSCC2", "note": "[XAV939]", "values": [{"measurement": "inhibition of canonical signaling alone: results comparable to the IWP2 treatment", "setting": "hPSC-derived mDA neurons; preliminary data (not shown)", "value": "might not be sufficient"}]}
{"molecule": "B1", "values": [{"measurement": "expression of EN1", "setting": "[1]; Wnt-boost protocol, FGF18 day 12 to day 16", "value": "high expression"}]}
